In the NIST ThermoML archive (doi:10.1016/j.jct.2015.07.025):
“And” between values parts separate entries of the source, which are not always exact repeats. Equal values may be shown once. ± gives the expanded uncertainty stated by the source.

How the values were obtained:
[1] = for Normal melting temperature: Crystal, DTA; for vapor or sublimation pressure: Liquid, Transpiration method
[2] = Molar enthalpy of transition or fusion; settings: Crystal; DSC

Cc1cc(C)c(C#N)c(C)c1 [2,4,6-trimethylbenzonitrile]
Settings	Molar enthalpy of transition or fusion [kcal/mol]	Normal melting temperature [°C]
[1]	–	52.4 ± 1.1
[2]	3.7 ± 0.12	–

Cc1ccccc1C#N [2-methylbenzonitrile]
[1]
Settings	vapor or sublimation pressure
287.4 K	0.02064 ± 0.0014 kPa
289.2 K	0.02389 ± 0.0015 kPa
290.3 K	0.02582 ± 0.0017 kPa
292.4 K	0.03043 ± 0.002 kPa
296.3 K	0.04075 ± 0.0026 kPa
298.1 K	0.0467 ± 0.003 kPa
300.7 K	0.05531 ± 0.0035 kPa
305.1 K	0.07684 ± 0.0049 kPa
308.2 K	0.0961 ± 0.0061 kPa
311 K	0.1162 ± 0.0073 kPa
312 K	0.1257 ± 0.0079 kPa and 0.1248 ± 0.0079 kPa
314.9 K	0.1494 ± 0.0094 kPa
316.1 K	0.1625 ± 0.01 kPa
318.1 K	0.1865 ± 0.012 kPa
321.1 K	0.2216 ± 0.014 kPa
322.2 K	0.2425 ± 0.015 kPa
324.2 K	0.2729 ± 0.017 kPa

Cc1cccc(C#N)c1 [3-cyanotoluene]
[1]
Settings	vapor or sublimation pressure [kPa]
279.8 K	0.0072 ± 0.0005
281.3 K	0.00829 ± 0.00057
283.7 K	0.01033 ± 0.00069
285.7 K	0.01206 ± 0.00081
288.3 K	0.01513 ± 0.001
290.3 K	0.01801 ± 0.0012
292.4 K	0.02154 ± 0.0014
294.3 K	0.02516 ± 0.0016
297.2 K	0.03103 ± 0.002
300 K	0.03937 ± 0.0025
302.1 K	0.04606 ± 0.0029
304.1 K	0.05317 ± 0.0034
307.7 K	0.06905 ± 0.0044
309.2 K	0.0755 ± 0.0048
310.1 K	0.08291 ± 0.0052
312 K	0.09159 ± 0.0058
313.7 K	0.1049 ± 0.0066

Cc1ccc(C#N)cc1 [4-cyanotoluene]
[1]
Settings	vapor or sublimation pressure
302.1 K	0.03154 ± 0.002 kPa
303.2 K	0.03377 ± 0.0022 kPa
305.3 K	0.04002 ± 0.0026 kPa
309.1 K	0.05079 ± 0.0032 kPa
311 K	0.06008 ± 0.0038 kPa
313.1 K	0.06747 ± 0.0043 kPa
315 K	0.07922 ± 0.005 kPa
319.1 K	0.09993 ± 0.0063 kPa
320.9 K	0.1159 ± 0.0073 kPa
322.9 K	0.1303 ± 0.0081 kPa
325 K	0.1463 ± 0.0092 kPa and 0.1458 ± 0.0092 kPa
329 K	0.1856 ± 0.012 kPa
331 K	0.2118 ± 0.013 kPa
332.8 K	0.2374 ± 0.015 kPa
334.9 K	0.2629 ± 0.016 kPa

Settings	Molar enthalpy of transition or fusion [kcal/mol]	Normal melting temperature [°C]
[1]	–	26.2 ± 1.1
[2]	3.85 ± 0.12	–
